From patent US20230105693A1, “ANTIMICROBIAL COMPOSITIONS” (Firmenich SA, priority 2020, published 2023) come the findings set out here.

Like-named read-outs stand apart in the source and are kept apart here.

A short description of series [1]: physchem. The series is classed as physicochemical. The procedure: The partition coefficient (P) is defined as the ratio of the concentrations (C) to the equilibrium of a dissolved and highly diluted substance in a biphasic system consisting of two almost immiscible solvents.
In the case of n-octanol and water:
The partition coefficient P is the quotient of two concentrations, it is generally indicated in its logarithmic form, base 10 (LogP).
The log P values of different perfume ingredients were measured using standard high performance liquid chromatography method, according to the reference (OECD, guideline No. 117, adopted on 13 Apr. 2004, Partition coefficient (n-octanol-water), High Performance Liquid Chromatography (HPLC) Method).

The test system of series [2] is Escherichia coli ATCC 10536. In words: Robotic BCT test of perfume ingredients in model surfactant bases. The settings on record: for log reduction at 0.5 %: Escherichia coli, ATCC10536, 45 s, read-out: Log reduction in Base 1 (Log CFU/mL). The series is classed as cell-based.
For series [3], the system named is E. coli ATCC 10536. Put plainly: Bacterial contact time (BCT) test of perfume ingredients in 20% ethanol solution (EN-1276 based). Type of series: cell-based, Escherichia coli. As to conditions: 20% EtOH, 45 s. The procedure: Bacterial suspensions of E. coli ATCC 10536 were prepared for antimicrobial testing as follows. Stock cultures stored at -80° C. were sub-cultured onto Tryptic Soy Agar (TSA) plate, and incubated at 37° C. for 24 h to obtain single colonies. Single colonies of the primary cultures were streaked onto TSA plates and incubated at 37° C. for 24 h to prepare the secondary cultures. Single colonies of secondary cultures were inoculated into 50 mL of Tryptic Soy broth (TSB), incubated at 37° C. 180 rpm for 18 h. Aliquots (0.5 ml) of the 18 h culture were inoculated into 50 ml of fresh TSB, and incubated at 37° C. 180 rpm for 2- 3 hours. When the OD600 nm value of the broth reached 1-2, cells were harvested by centrifugation at 5,000 rpm for 10 min, and then resuspended in the same fresh broth media to achieve the target level of 1-5 × 10^8 colony forming unit (CFU)/mL. This suspension was used for further antimicrobial tests.
Unless indicated otherwise, log reduction testing according to the present invention is determined in accordance with the following method.
Bacterial contact time (BCT) test based on European standard EN-1276 was used to determine dose dependent bactericidal activity of perfume ingredients in 20% ethanol solutions.
Perfume ingredients of various concentrations (doses) were prepared in 40% ethanol solutions. Eleven replicates of each sample were added into 96-well microtiter plates (120 µl per well) in column 1-11 of one row, with row B as the control sample of the ethanol solution. Then, 120 µl of cell suspension at a concentration of approximately 1-5 × 10^8 CFU/ML (as prepared above) were added to each well of the microtiter plate. A specified contact time (45 s) was allowed for target bacterial strains. At the end of the contact time, serial dilutions were prepared in 96 well plates with growth media: 3 times of 1 in 10 dilutions and followed by 17 times of 1 in 2 dilutions. Each plate was sealed and incubated at 37° C. under agitation (180 rpm). After incubation, turbidity of the wells (OD 600 nm) was recorded by Tecan microplate reader. Turbid cells were regarded as positive growth of viable cells. The total number of viable cells (log CFU/mL) for each sample was calculated. And the log reduction for each test composition at the final concentration (dose) was calculated against the control sample of the 20% ethanol solution.
Table 20 show the bactericidal dose related effect (log reduction) and calculated effect fraction of the Mixture C and compositions against E. coli ATCC 10536. Stock of compositions were prepared in 100% ethanol, then diluted in MilliQ water to obtain 2 × final concentration in 40% ethanol. BCT tests were conducted on samples against E. coli for a contact time of 45 s.

Series [4] is described as follows: Equivalent alkane carbon number (EACN) in model microemulsion system. The series is classed as physicochemical. As to conditions: C10E5/water/isopropyl myristate model system, 3% wt perfume ingredient.
[5] abbreviates: model base 1, table by functional group.

In series [1], `Cc1ccc(C(C)C)c(O)c1` [2-isopropyl-5-methylphenol] came in with a chromatographic logP of 2.57. Also, the log reduction at 0.5 % in series [2] (0.5% perfume ingredient, Base 1: SLES 1.875%, CAPB 0.625%, contact 45 s) was over 5.5; in series [2] (setting [5]) it was over 5.5. Also, the Effect fraction was found to be 0.120 in series [3] (dose 0.025% w/v); 0.300 in series [3] (dose 0.030% w/v); 0.470 in series [3] (dose 0.035% w/v); 0.690 in series [3] (dose 0.040% w/v); 0.890 in series [3] (dose 0.045% w/v). Also, the Log reduction is 0.887 in series [3] (dose 0.025% w/v); 2.140 in series [3] (dose 0.030% w/v); 3.344 in series [3] (dose 0.035% w/v); 4.987 in series [3] (dose 0.040% w/v); 6.387 in series [3] (dose 0.045% w/v). In addition, in series [4], the EACN is reported as -43.68.
On to `Cc1ccc(C(C)C)cc1O` [5-isopropyl-2-methylphenol], for which, in series [1] (n-octanol/water, HPLC method, read-out: Log P), the chromatographic logP is 2.52. Also, in series [2], the log reduction at 0.5 % worked out at 5.3. The “Log reduction in Base 1 (Log CFU/mL)” value in series [2] (setting [5]) is 5.3 Log CFU/mL. The Effect fraction is given as 0.090 in series [3] (dose 0.030% w/v); 0.250 in series [3] (dose 0.035% w/v); 0.610 in series [3] (dose 0.040% w/v); 0.830 in series [3] (dose 0.045% w/v); 0.970 in series [3] (dose 0.050% w/v). Further, the Log reduction in series [3] (dose 0.030% w/v) was determined as 0.660; in series [3] (dose 0.035% w/v), 1.812; in series [3] (dose 0.040% w/v), 4.379; in series [3] (dose 0.045% w/v), 5.960; in series [3] (dose 0.050% w/v), 6.960. Moreover, the EACN in series [4] is recorded as -43.89.
